How the values were obtained:
[1] = target: Urokinase-type plasminogen activator (Homo sapiens, UniProt P00749)
[2] = target: T1, Tissue-type plasminogen activator (Homo sapiens, UniProt P00750); assay: Inhibitory activity against human tissue plasminogen activator was evaluated using S-2444 as substrate and tissue plasminogen activator stimulator at 1 mM
Target sequence in this assay (P00750 36-562 limits assumed): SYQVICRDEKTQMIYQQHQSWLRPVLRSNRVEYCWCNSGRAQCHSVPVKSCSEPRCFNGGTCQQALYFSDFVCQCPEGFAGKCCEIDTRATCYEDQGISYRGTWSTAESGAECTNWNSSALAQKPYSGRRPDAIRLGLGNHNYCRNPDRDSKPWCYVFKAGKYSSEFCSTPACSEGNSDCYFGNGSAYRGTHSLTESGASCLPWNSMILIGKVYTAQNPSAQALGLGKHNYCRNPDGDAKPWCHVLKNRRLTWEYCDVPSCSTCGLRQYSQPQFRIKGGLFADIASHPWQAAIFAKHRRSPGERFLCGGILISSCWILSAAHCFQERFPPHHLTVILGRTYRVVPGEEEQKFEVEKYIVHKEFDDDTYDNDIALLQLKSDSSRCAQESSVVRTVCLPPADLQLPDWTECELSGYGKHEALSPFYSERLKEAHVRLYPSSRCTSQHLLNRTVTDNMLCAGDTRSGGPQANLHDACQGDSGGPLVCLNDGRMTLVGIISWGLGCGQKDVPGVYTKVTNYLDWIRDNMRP

Plasminogen [3] = target: T2, Plasminogen (Homo sapiens, UniProt P00747); assay: Inhibitory activity against human plasmin was evaluated using chromozym-PL as substrate at 300 mM
T2 sequence (P00747 97-580 limits assumed): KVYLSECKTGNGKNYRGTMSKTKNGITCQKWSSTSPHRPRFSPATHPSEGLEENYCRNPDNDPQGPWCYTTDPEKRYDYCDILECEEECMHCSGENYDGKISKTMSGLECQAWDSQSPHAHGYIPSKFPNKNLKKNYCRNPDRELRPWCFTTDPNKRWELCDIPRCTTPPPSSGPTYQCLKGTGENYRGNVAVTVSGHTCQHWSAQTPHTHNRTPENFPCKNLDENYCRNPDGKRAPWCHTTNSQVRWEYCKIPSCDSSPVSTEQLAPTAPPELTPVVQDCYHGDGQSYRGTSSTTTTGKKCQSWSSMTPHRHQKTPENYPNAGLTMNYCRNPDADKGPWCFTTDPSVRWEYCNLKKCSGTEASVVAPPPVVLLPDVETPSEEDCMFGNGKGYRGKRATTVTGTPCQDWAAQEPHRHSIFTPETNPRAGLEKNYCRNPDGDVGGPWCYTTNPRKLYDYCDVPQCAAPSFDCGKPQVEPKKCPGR
T2 sequence (P00747 581-810 limits assumed): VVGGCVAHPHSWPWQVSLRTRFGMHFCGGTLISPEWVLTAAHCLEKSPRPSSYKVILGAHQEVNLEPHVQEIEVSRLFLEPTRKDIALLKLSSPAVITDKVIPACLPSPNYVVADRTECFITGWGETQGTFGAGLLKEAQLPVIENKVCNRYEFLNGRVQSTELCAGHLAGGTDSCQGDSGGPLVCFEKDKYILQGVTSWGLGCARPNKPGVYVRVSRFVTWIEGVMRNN

[4] = target: T1, Tissue-type plasminogen activator; assay: Inhibitory activity against human tissue type plasminogen activator was evaluated using S-2444 as substrate and tissue plasminogen activator stimulator at […]
Target sequence in this assay (P00750 36-562 limits assumed): as the sequence (P00750 36-562 limits assumed) above

Plasminogen [5] = target: T2, Plasminogen; assay: Inhibitory activity against human plasmin was evaluated using chromozym-PL as substrate at 100 mM
[6] = target: T1, Tissue-type plasminogen activator; assay: Inhibitory activity against human tissue type plasminogen activator using S-2444
Target sequence in this assay (P00750 whole entry): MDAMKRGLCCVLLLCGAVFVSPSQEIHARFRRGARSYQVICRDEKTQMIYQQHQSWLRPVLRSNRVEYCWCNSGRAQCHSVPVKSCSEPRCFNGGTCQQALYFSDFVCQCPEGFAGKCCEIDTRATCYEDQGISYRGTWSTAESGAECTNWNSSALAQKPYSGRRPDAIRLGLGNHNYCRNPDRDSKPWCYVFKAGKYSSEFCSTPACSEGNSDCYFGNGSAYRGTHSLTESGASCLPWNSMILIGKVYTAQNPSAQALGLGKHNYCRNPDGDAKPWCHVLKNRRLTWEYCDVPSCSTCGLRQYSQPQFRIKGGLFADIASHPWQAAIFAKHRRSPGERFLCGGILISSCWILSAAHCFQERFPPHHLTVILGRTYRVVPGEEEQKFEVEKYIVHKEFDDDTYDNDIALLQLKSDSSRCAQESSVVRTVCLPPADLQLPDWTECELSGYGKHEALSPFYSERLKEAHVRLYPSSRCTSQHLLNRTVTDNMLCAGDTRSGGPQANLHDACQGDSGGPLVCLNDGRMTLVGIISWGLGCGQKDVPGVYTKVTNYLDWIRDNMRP

Plasminogen [7] = target: T2, Plasminogen; assay: Inhibition of human plasmin activity with chromozym-PL as substrate
Plasminogen [8] = target: T2, Plasminogen; assay: (§1) Inhibitory activity against human plasmin was evaluated using chromozym-PL as substrate at 1 mM
Plasminogen [9] = target: T2, Plasminogen; assay: as §1; remark: listed apart in the source
Plasminogen [10] = target: T2, Plasminogen; assay: Inhibitory activity against human plasmin was evaluated using chromozym-PL as substrate at 10 uM
[11] = target: T1, Tissue-type plasminogen activator; assay: Inhibitory activity against human tissue plasminogen activator was evaluated using S-2444 as substrate and tissue plasminogen activator stimulator at 30 uM
Target sequence in this assay (P00750 36-562 limits assumed): as the sequence (P00750 36-562 limits assumed) above

Plasminogen [12] = target: T2, Plasminogen; assay: Inhibitory activity of 30 uM compound against plasmin was evaluated using chromozym-PL as substrate
Plasminogen [13] = target: T2, Plasminogen; assay: Inhibitory activity of 3 uM compound against plasmin was evaluated using chromozym-PL as substrate

Q: `COc1cccc2c(N=C(N)N)nccc12` was tested. Which Ki [1] did it give?
A: 3.62 µM

Q: What about the inhibition [2] of the same molecule?
A: < 50%

Q: What about the inhibition (Plasminogen [3]) of the same molecule?
A: < 50%

Q: Which results are given for `N=C(N)Nc1nccc2ccc(CO)cc12`?
A: inhibition [4]: < 50%; Ki [1]: 1.3 µM; inhibition (Plasminogen [5]): 55%

Q: For `NC(N)=Nc1nccc2c(OCc3ccccc3)cccc12`, which Ki [6] is on record?
A: 13 µM

Q: `Cc1ccc(-c2ccc3c(Cl)cnc(N=C(N)N)c3c2)cc1` was tested. Which Ki [6] did it give?
A: 19 µM

Q: And the Ki [1]?
A: 0.13 µM

Q: What about the Ki (Plasminogen [7]) of the same molecule?
A: 7.3 µM

Q: `N#Cc1ccc(-c2ccc3c(Cl)cnc(N=C(N)N)c3c2)cc1` was tested. Which Ki [1] did it give?
A: 0.49 µM

Q: `COc1ccc2ccnc(N=C(N)N)c2c1` was tested. Which inhibition [4] did it give?
A: < 50%

Q: What about the Ki [1] of the same molecule?
A: 0.66 µM

Q: What about the inhibition (Plasminogen [5]) of the same molecule?
A: < 50%

Q: Which Ki [6] does the source give for `NC(N)=Nc1ncc(Cl)c2ccccc12` here?
A: 128 µM

Q: And the Ki [1]?
A: 0.83 µM

Q: For `Cc1cnc(N=C(N)N)c2ccccc12`, which inhibition [4] is on record?
A: < 50%

Q: And the inhibition (Plasminogen [5])?
A: < 50%

Q: Which Ki (Plasminogen [8]) does the source give for `NC(N)=Nc1nccc2ccccc12` here?
A: 68 µM

Q: What about the Ki [6] of the same molecule?
A: 126 µM

Q: And the Ki [1]?
A: 1.92 µM

Q: Which inhibition [4] does the source give for `N#Cc1cccc(-c2ccc3c(Cl)cnc(NC(=N)N)c3c2)c1` here?
A: < 50%

Q: Which Ki (Plasminogen [7]) does the source give for `NC(N)=Nc1nccc2cc(Br)ccc12` here?
A: 131 µM

Q: How did the inhibition [4] turn out when `N=C(N)Nc1ncc(Cl)c2ccc(-c3ccc4c(c3)OCO4)cc12` was run?
A: < 50%

Q: And the Ki [1]?
A: 0.1 µM

Q: What about the Ki (Plasminogen [7]) of the same molecule?
A: 3.2 µM

Q: With `N=C(N)Nc1nccc2cc(Br)ccc12` as the molecule, how does the inhibition [2] read?
A: < 50%

Q: For `N#Cc1cccc(-c2ccc3c(Cl)cnc(N=C(N)N)c3c2)c1`, which Ki [1] is on record?
A: 0.3 µM

Q: What about the Ki (Plasminogen [7]) of the same molecule?
A: 4.1 µM

Q: For `N=C(N)Nc1ccc2ccccc2n1`, which inhibition (Plasminogen [9]) is on record?
A: < 50%

Q: Which inhibition (Plasminogen [10]) does the source give for `N#Cc1ccc(-c2ccc3c(Cl)cnc(NC(=N)N)c3c2)cc1` here?
A: 82%

Q: And the inhibition [4]?
A: < 50%

Q: With `N=C(N)Nc1cc2ccccc2cn1` as the molecule, how does the inhibition (Plasminogen [9]) read?
A: < 50%

Q: And the inhibition [2]?
A: < 50%

Q: `N=C(N)Nc1nccc2ccc(C(=O)O)cc12` was tested. Which inhibition [4] did it give?
A: < 50%

Q: What about the inhibition (Plasminogen [5]) of the same molecule?
A: < 50%

Q: Which inhibition [4] does the source give for `CC(O)c1ccc2ccnc(N=C(N)N)c2c1` (configuration not stated) here?
A: < 50%

Q: And the Ki [1]?
A: 0.64 µM

Q: What about the Ki (Plasminogen [7]) of the same molecule?
A: 24 µM

Q: With `NC(N)=Nc1nccc2c(-c3ccccc3)cccc12` as the molecule, how does the Ki [6] read?
A: 124 µM

Q: And the Ki [1]?
A: > 100 µM

Q: And the Ki (Plasminogen [7])?
A: 47.5 µM

Q: `N=C(N)Nc1ncc(Br)c2ccccc12` was tested. Which inhibition (Plasminogen [9]) did it give?
A: < 50%

Q: And the Ki [6]?
A: 159 µM

Q: With `NC(N)=Nc1nccc2ccc(Br)cc12` as the molecule, how does the Ki [6] read?
A: 95.1 µM

Q: What about the Ki (Plasminogen [7]) of the same molecule?
A: 50.8 µM

Q: What does the source list for `COc1ccc(-c2ccc3c(Cl)cnc(N=C(N)N)c3c2)cc1`?
A: inhibition [4]: < 50%; Ki (Plasminogen [7]): 3 µM

Q: Which inhibition [11] does the source give for `N=C(N)Nc1ncc(Cl)c2ccc(-c3ccccc3)cc12` here?
A: < 50%

Q: And the inhibition (Plasminogen [12])?
A: < 50%

Q: For `COc1ccccc1-c1ccc2c(Cl)cnc(N=C(N)N)c2c1`, which Ki [6] is on record?
A: 15.5 µM

Q: And the Ki (Plasminogen [7])?
A: 14.5 µM

Q: `NC(N)=Nc1nccc2ccc(-c3ccccc3)cc12` was tested. Which Ki [6] did it give?
A: 124 µM

Q: What about the Ki [1] of the same molecule?
A: 0.4 µM

Q: And the Ki (Plasminogen [7])?
A: 47.5 µM

Q: With `COc1ccc(C#N)cc1-c1ccc2c(Cl)cnc(N=C(N)N)c2c1` as the molecule, how does the inhibition [4] read?
A: < 50%

Q: What about the inhibition (Plasminogen [12]) of the same molecule?
A: < 50%

Q: What about the Ki [1] of the same molecule?
A: 0.18 µM

Q: Which inhibition (Plasminogen [9]) does the source give for `N=C(N)Nc1ncc(Cl)c2ccccc12` here?
A: < 50%

Q: `N=C(N)Nc1nccc2ccc(OCc3ccccc3)cc12` was tested. Which Ki [6] did it give?
A: 13 µM

Q: What about the Ki [1] of the same molecule?
A: 4.8 µM

Q: And the inhibition (Plasminogen [5])?
A: < 50%

Q: Which results are given for `COc1ccc(C(=O)O)cc1-c1ccc2c(Cl)cnc(N=C(N)N)c2c1`?
A: inhibition [4]: < 50%; Ki [1]: 0.009 µM; Ki (Plasminogen [7]): 4.75 µM

Q: For `N=C(N)Nc1ccccn1`, which Ki [1] is on record?
A: 29 µM

Q: Which results are given for `N=C(N)Nc1nccc2ccc(-c3ccc4c(c3)OCO4)cc12`?
A: inhibition [2]: 55%; Ki (Plasminogen [7]): 12 µM

Q: For `COc1cccc(-c2ccc3c(Cl)cnc(N=C(N)N)c3c2)c1`, which inhibition [4] is on record?
A: < 50%

Q: What about the Ki [1] of the same molecule?
A: 0.083 µM

Q: For `N=C(N)Nc1nccc2c(OCc3ccccc3)cccc12`, which inhibition (Plasminogen [5]) is on record?
A: < 50%

Q: What does the source list for `N=C(N)Nc1nccc2c(Br)cccc12`?
A: Ki [6]: 140 µM; Ki [1]: 4.93 µM; Ki (Plasminogen [7]): 238 µM

Q: Which Ki [6] does the source give for `NC(N)=Nc1ccc2ccccc2n1` here?
A: 367 µM

Q: And the Ki [1]?
A: 209 µM

Q: For `N=C(N)Nc1ncc(Cl)c2ccc(-c3cccc(C(=O)O)c3)cc12`, which inhibition (Plasminogen [10]) is on record?
A: < 50%

Q: What about the inhibition [4] of the same molecule?
A: < 50%

Q: How did the Ki [1] turn out when `NC(N)=Nc1ncc(Cl)c2ccc(-c3cccc(C(=O)O)c3)cc12` was run?
A: 0.037 µM

Q: Which inhibition (Plasminogen [13]) does the source give for `N=C(N)Nc1ncc(Cl)c2ccc(-c3ccc(C(=O)O)cc3)cc12` here?
A: 65%

Q: What about the inhibition [4] of the same molecule?
A: < 50%

Q: What about the Ki [1] of the same molecule?
A: 0.082 µM

Reference: ChEMBL document CHEMBL1146651, “Selective urokinase-type plasminogen activator (uPA) inhibitors. Part 3: 1-isoquinolinylguanidines” (Bioorg Med Chem Lett, 2004)
